What was measured:
Type in all cases: cell-based, human
[1] = tested on: 4R-P301S iPSC-derived neurons; assay: Toxic effect of UBA5 inhibitor on iPSC-derived neurons; conditions: 5 uM, 10 uM and 20 uM (data not shown)
Protocol: 4R-P301S iPSCs were seeded at the density of 1.2×10^7 per plate in 10-cm plates in pre-differentiation medium. On day 0, pre-differentiated neurons were replated at the density of 4×10^5 per well in poly-D-lysine (PDL) pre-coated 12-well plates (Corning) in maturation medium. On day 5, iPSCs differentiated neurons were treated with three UBA5 inhibitors separately ay various concentrations. On day 7, iPSCs differentiated neurons were treated with […] K18 fibrils for 2 weeks. On day 21, neurons in 12-well plates were collected for flow cytometry analysis.

[2] = tested on: tau inclusion in K18-seeded 4R-P301S neurons; assay: UBA5 inhibitor treatment, flow cytometry of MC1+ tau inclusions; conditions: for tau inclusion induced by K18 seeding (MC1+/DAPI+ neurons) compared with control treatment group: treated Day 5, 3.0 ug/mL K18 Day 7, FACS Day 21
Protocol: Pre-differentiation of human iPSCs into neurons was initiated by plating 1.5×10^6 iPSCs in one well Matrigel-coated 6-well plates with Knockout DMEM/F-12 media containing doxycycline ([…]), N2 supplement, non-essential amino acids, brain-derived neurotrophic factor (10 ng/mL, Peprotech), neurotrophin-3 (10 ng/mL, PeproTech) and ROCK inhibitor (Y-27632, Cayman chemicals). The media was replaced the next day without ROCK inhibitor, and pre-differentiation was maintained for a total of three days. On day 0, the pre-differentiated precursor cells were dissociated with Accutase and re-plated generally onto Laminin-coated coverslips (Neuvitro) at 1.5×10^5 cells/coverslip or 12-well tissue culture plates (Corning) at 3.8×10^5 cells/well for the growth of neuronal cultures in Neurobasal Plus media containing B27 supplement, Glutamax, BDNF (10 ng/mL) and NT3 (10 ng/mL) with doxycycline (2 μg/mL). Half of the medium was replaced on day 3, as well as on day 7 with the removal of doxycycline from the fresh media. The medium volume was doubled on day 21. Thereafter, one-half of the medium was replaced with fresh medium weekly until the cells were collected. All human iPS cell lines used in this work have been regularly tested for mycoplasma (Lonza) and karyotyped (MSK Molecular Cytogenetics Core).
Myc-tagged K18-P301L Tau was expressed and purified as previously described2. Briefly, protein expression was induced in Terrific Broth containing the chemical chaperone betaine (10 mM) and IPTG (500 uM) for 3 hrs at 30° C. Tau was purified via the following major steps: mechanical lysis, boiling, centrifugation, and cation exchange. Purified Tau fractions were dialyzed into aggregation assay buffer (PBS pH 7.4, 2 mM DTT). To minimize potential endotoxin contamination, purified tau was incubated with poly(epsilon-lysine) conjugated resin (Pierce), then tested post-treatment for endotoxin levels using the ToxinSensor™ Chromogenic LAL Endotoxin Assay Kit (Genscript). […] The concentration of aggregated tau was quantified by Pierce BCA assay. […]

[3] = tested on: hM4Di-expressing K18-seeded 4R-P301S-HaloTag neurons; assay: DREADDs chronic neuronal silencing, MC1 tau inclusions; conditions: CNO weekly for 2 weeks starting one week after K18 seeding
Protocol: 4R-P301S-HaloTag iPSCs were differentiated into neurons on coverslips as described. Neurons were transduced with hSyn-hM4Di-mCherry lentivirus on D6. This lentiviral construct was made using the 3rd generation lentiviral plasmid FUGW (Addgene, 14883), where the PacI+EcoRI fragment was replaced by hSyn-hM4D(Gi)-mCherry. pAAV-hSyn-hM4D(Gi)-mCherry was a gift from Bryan Roth (Addgene, 50475; http://n2t.net/addgene). The medium was changed on D7, and neurons were seeded with […] K18-tau fibrils. Neurons were maintained as described. Beginning at D14, clozapine-N-oxide (CNO; Tocris) was included in weekly media changes for a final concentration of […]. Neurons were fixed and stained with MC1 on D29. For MC1 quantification, stained neurons were imaged with a fluorescence microscope (Keyence BZ-X710). A 20× objective was used to acquire a series of 10 Z-stack images per coverslip. To validate the neuronal silencing effect of CNO by calcium imaging, 4R-P301S neurons were differentiated and transduced with hSyn-hM4Di-mCherry and hSyn-GCaMP8f lentivirus on D6. At D36, JFX-549 was added to neurons and prepared for imaging as described above. Exposure time was set to 20 milliseconds. Neurons were perfused with 10 μM CNO at 60 seconds and calcium traces in one field were recorded for 400 seconds.

[4] = tested on: hM4Di-expressing 4R-P301S neurons; assay: Calcium imaging of acute neuronal silencing by CNO; conditions: upon addition of CNO
Protocol: 4R-P301S-HaloTag iPSCs were differentiated into neurons on coverslips as described. Neurons were transduced with hSyn-jGCaMP8f lentivirus on D6. This lentiviral construct was made using the 3rd generation lentiviral plasmid FUGW (Addgene, 14883), where the PacI+EcoRI fragment was replaced by the hSyn-GCaMP8f fragment (Zhang et al., 2023). pGP-AAV-hSyn-jGCaMP8f-WPRE was a gift from GENIE Project (Addgene, 162376). The medium was changed on D7, and neurons were seeded with […] K18-tau fibrils. Neurons were maintained as described until imaging at 4 and 5 weeks old. On the day of imaging, JFX-549 HaloTag ligand (HHMI Janelia) was diluted into fresh maturation medium to […], and one-fifth of neuronal medium was replaced with diluted ligand (200 nM final ligand concentration). Cells were incubated at 37° C. for 15 minutes. An equal volume of medium was replaced with half-fresh medium, and half-conditioned medium from a control well. […] Fluorescence time-lapse images were collected on a Nikon FN1 microscope using a 60×, 1.0 NA objective (CFI APO 60XW NIR, Nikon) and a C-FL GFP filter cube. […]
4R-P301S-HaloTag iPSCs were differentiated into neurons on coverslips as described. […] For MC1 quantification, stained neurons were imaged with a fluorescence microscope (Keyence BZ-X710). […] Neurons were perfused with 10 μM CNO at 60 seconds and calcium traces in one field were recorded for 400 seconds.

Row | Structure (SMILES) | toxic effect on neurons [1] | tau inclusion induced by K18 seeding (MC1+/DAPI+ neurons) compared with control treatment group ([2]; 0.1 uM) | tau inclusion induced by K18 seeding (MC1+/DAPI+ neurons) compared with control treatment group ([2]; 1 uM) | percentage of MC1+ cells (tau inclusion induced by K18 treatment) ([2]; D21(7+14), 3 μg/ml K18-seeded 4R-P301S neurons pre-treated at various concentrations, FIG. 15 legend) | levels of Tau inclusions (MC1+ aggregates) compared with vehicle treatment [3] | neuronal activities (calcium imaging) [4]
1 | CC(=O)c1c(O)c(C)c(O)c2c1OC1=CC(=O)/C(=C(/C)N)C(=O)[C@@]12C [Usenamine A, (2E,9bR)-6-acetyl-2-(1-aminoethylidene)-7,9-dihydroxy-8,9b-dimethyldibenzouran-1,3-dione] | exerted toxic effect on neurons | failed to prevent tau inclusion | successfully prevented tau inclusion | prevented the tau inclusion | – | –
2 | C[N+]1([O-])CCN(C2=Nc3cc(Cl)ccc3Nc3ccccc32)CC1 [CNO, clozapine-N-oxide] | – | – | – | – | significantly reduced | silenced

Source: US20240409890A1, “UFMYLATION INHIBITION TO TARGET TAUOPATHY IN HUMAN NEURONS” (priority 2023, published 2024)
